Results from patent US20120232062A1, “AZAINDAZOLES TO TREAT FLAVIVIRIDAE VIRUS INFECTION” (EIGER BIOPHARMACEUTICALS, INC., priority 2009, published 2012).

How the values were obtained:
[1] = Liver microsome stability, human; assay type: in vitro ADME
Excerpt: (§1) Metabolic stability assays are designed to measure the stability of a test compound in a variety of assay matrices from human and animal species. From a metabolism perspective, a drug would be relatively stable, have a small first-pass effect, and maintain an effective concentration in blood for a reasonable period of time. A microsomal preparation from the liver contains all CYP isozymes and other membrane-bound drug metabolizing enzymes which are responsible for the metabolism for the majority of drugs in humans. Metabolic stability in liver microsomes can determine half-life (T1/2) and intrinsic clearance (Clint). The determination of Clint may be useful to determine whether metabolism is the major elimination pathway when it is compared to total body clearance in vivo. For high metabolic stability in liver microsomes: […] Human, Sprague Dawley rat, and CD-1 mouse liver microsome samples were purchased from BD Gentest. An in vitro metabolic stability assay suitable for use in predicting first pass metabolism of the compounds useful in the methods of the invention is described in this example. […] 6 mM NADPH in 0.1 M K-phosphate buffer is prepared by dissolving 25.1 mg of NADPH tetrasodium salt in 5 mL of K-phosphate buffer. […] The plate is pre-incubated at 37° C. for 10 minutes. 15 μL of NADPH stock solution (6 mM) is added to the wells designated for Time 60 and timed. At 30 min, 15 min, and 5 min, 15 μL of NADPH stock solution (6 mM) is added to the wells. At the end of incubation, 135 μL of ACN containing IS is added to all the wells (60 min, 30 min, 15 min, 5 min and 0 min). Then 15 μL of NADPH stock solution (6 mM) is added to the wells designated as Time 0.

[2] = Liver microsome stability, mouse; assay type: in vitro ADME, CD-1 mouse
Excerpt: as §1

[3] = Caco-2 permeability testing; assay type: in vitro ADME, human; details: human, 90 min; for Papp A→B at 90 min, 10 µM: Caco-2, pH 7.4, Caco-2, A-B, read-out: Permeability (second figure of Efflux/permeability), Papp (A-B); for Papp B→A at 90 min, 10 µM: Caco-2, pH 7.4, Caco-2, B-A, read-out: Efflux (first figure of Efflux/permeability), Papp (B-A)
How it was run: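 Caco-2 monolayers grown 21-27 days in MEM + 10% FBS + 1% NEAA; bidirectional transport (A-B, B-A) in HBSS with 25 mM HEPES, pH 7.4, 10 μM compound donor with 5 μM Lucifer Yellow as monolayer marker. Papp measured each direction, quantified against standard curve with internal standard; efflux ratio Papp(B-A)/Papp(A-B).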

| SMILES | human liver microsome (HLM, % parent remaining) ([1]; after 15 min) [% parent remaining] | human liver microsome (HLM, % parent remaining) ([1]; after 30 min) [% parent remaining] | human liver microsome (HLM, % parent remaining) ([1]; after 60 min) [% parent remaining] | mouse liver microsome (MLM), % parent remaining ([2]; after 15 min) [% parent remaining] | mouse liver microsome (MLM), % parent remaining ([2]; after 30 min) [% parent remaining] | mouse liver microsome (MLM), % parent remaining ([2]; after 60 min) [% parent remaining] | Papp A→B at 90 min, 10 µM [3] [×10⁻⁶ cm/s] | Papp B→A at 90 min, 10 µM [3] [×10⁻⁶ cm/s] |
| --- | --- | --- | --- | --- | --- | --- | --- | --- |
| Cn1nc(CCCN2CCCCC2CO)c2ccc(N3CCCCCCC3)nc21 (stereo not drawn) [compound 1456] | 28 | 6 | 0.7 | 1.7 | 0.9 | 0.3 | 15 | 15 |
| CCN1CCC(NC(=O)c2nn(C)c3nc(N4CCCCCC4)ccc23)CC1 [compound 1595] | 73 | 45 | 14 | 67 | 50 | 17 | 15.3 | 14.4 |
| Cn1nc(C(=O)NC2CCN(CCN3CCCC3)CC2)c2ccc(N3CCCCCC3)nc21 [compound 1597] | 81 | 74 | 58 | 67 | 32 | 14 | 9.2 | 6.5 |
